# Measurements taken from US9063142B1, “Method of predicting sensitivity to prostate cancer therapy” (University of Florida, priority 2004, dated 2015).
# Experiments:
# Type in all cases: cell-based, human
# [1] = system: p53; assay: p53 abundance in LNCaP cells, Western blotting; conditions: 30 micro-M pifithrin-alpha 24 hr, then 25 micro-M roscovitine 16 hr, FIG. 5A
# Protocol: (§2) Cells were rinsed with PBS and lysed in a buffer containing 50 mM Hepes, pH 7.5, 150 mM NaCl, 1 mM EDTA, 1 mM EGTA, 10% glycerol, 0.5% NP-40, 1 mM dithiothreitol, 0.1 mM phenylmethylsulfonyl fluoride, 2.5 micro-g/ml leupeptin, 0.5 mM NaF, and 0.1 mM Na3VO4. After a 30 min incubation, insoluble material was removed by centrifugation. Cell extracts normalized for amount protein were resolved by SDS-PAGE and transferred to nitrocellulose membranes. Blots were blocked in PBS containing 0.05% Tween and 5% instant milk and incubated with antibody in PBS containing 0.05% Tween for 2 hr at room temperature. Proteins recognized by the antibody were detected by enhanced chemiluminescence using a horseradish peroxidase-coupled secondary antibody as specified by the manufacturer (Pierce).
# [2] = system: LNCaP cells; assay: PARP cleavage by Western blotting; conditions: 30 micro-M pifithrin-alpha 24 hr, then 25 micro-M roscovitine 16 hr, FIG. 5A
# Protocol: as §2
# [3] = system: cytochrome c; assay: Cytochrome c in S100 cytosolic extracts of LNCaP cells, Western blotting; conditions: 25 micro-M, 20 hr, FIG. 3B
# Protocol: Cells were washed in ice-cold PBS, resuspended in an isotonic mitochondrial buffer (210 mM mannitol, 70 mM sucrose, 1 mM EDTA, 10 mM Hepes, pH 7.5, and a protease inhibitor cocktail (Sigma)), and homogenized in a Dounce homogenizer. The heavy membrane fraction was removed by two successive centrifugations, the first at 1000 H g for 10 min and the second at 10,000 H g for 10 min. To obtain the […], the supernatant was centrifuged at 100,000 H g for 90 min.
# [4] = system: PC3 cells; assay: DNA fragmentation, Cell Death Detection ELISA; conditions: 20 hr, FIG. 5B
# Protocol: (§1) DNA fragmentation was determined using a photometric enzyme-linked immunoassay (Cell Death Detection ELISA kit, Roche) as specified by the manufacturer. […] Cell lysates were incubated with biotin-conjugated anti-histone antibody and peroxidase-conjugated anti-DNA antibody on streptavidin-coated microtiter plates for 2 hr at room temperature. After incubation with ATBS substrate for development of color, absorbance was read on a spectrophotometer at 405 nm against ABTS solution as the blank. For background determination, lysis buffer was used instead of cell lysate.
# [5] = system: LNCaP-Rf cells; assay: Keratin 18 cleavage, M30 immunostaining; conditions: 25 micro-M, 20 hr, FIG. 2B
# Protocol: After incubation, cells were fixed in ice-cold methanol at […]. for 30 min and incubated with FITC-conjugated M30 antibody for 60 min at room temperature. Cells were mounted with Vectashield containing DAPI.
# [6] = system: LNCaP cells; assay: DNA fragmentation, Cell Death Detection ELISA; conditions: co-treated with 25 micro-M roscovitine, 20 hr, FIG. 3A
# Protocol: as §1
compound,measurement,setting,value
Cc1ccc(C(=O)Cn2c3c(sc2=N)CCCC3)cc1 [pifithrin-α],p53 abundance in cells co-treated with roscovitine,[1],did not increase
same,PARP cleavage in roscovitine-treated cells,[2],substantially reduced
"CC[C@H](CO)Nc1nc(NCc2ccccc2)c2ncn(C(C)C)c2n1 [roscovitine, 6-benzylamino-2-[(R)-1-ethyl-2-hydroxye-thylamino]-9-isopropylpurine]",cytochrome c in the cytosol,[3],present
same,increase in amounts of fragmented DNA,[4]; 25 μM,8 fold
same,increase in amounts of fragmented DNA,[4]; 50 μM,3 fold
same,keratin 18 cleavage,[5],keratin 18 cleavage
z-DEVD-fmk,roscovitine-induced apoptosis (DNA fragmentation) in presence of caspase inhibitor,[6],did not induce apoptosis
z-LEHD-fmk,roscovitine-induced apoptosis (DNA fragmentation) in presence of caspase inhibitor,[6],did not induce apoptosis
